Earlier results as cited in US20150320675A1, “Modified Release Osmotic Pump for PH-Responsive Drug Delivery” (UNIVERSITY OF UTAH RESEARCH FOUNDATION, priority 2013, published 2015).

What was measured:
[1] = biological target: reverse transcriptase (Human immunodeficiency virus type 1 group M subtype B, UniProt P04585)
[2] = tested on: entry

Cc1cc(C)cc(C(=O)c2c(C(C)C)c(=O)[nH]c(=O)n2CC2CC2)c1 [IQP-0528, 1-(cyclopropylmethyl)-6-(3,5-dimethylbenzoyl)-5-isopropylpyrimidine-2,4(1H,3H)-dione]
non-nucleoside reverse transcriptase inhibition activity [1]: potent nanomolar
entry inhibition activity [2]: potent nanomolar
